The source of these data is US20260166159A1, “KRAS G12D DEGRADATION AGENT, AND PREPARATION METHOD AND USE THEREFOR” (LEADINGTAC PHARMACEUTICAL (SHAOXING) CO., LTD., priority 2022, published 2026).

The target in assay [1] is T1, Human KRAS G12D 6His-tagged (Homo sapiens, UniProt P01116, G12D).
T1 construct: purchased PerkinElmer
The assay can be described thus: KRAS-G12D/GTP binding assay (HTRF). To be noted: class symbols. The method, boiled down:
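HTRF kit format: 6His-tagged KRAS G12D incubated with compound (final 0.02-5000 nM, 0.5% DMSO), anti-6His Eu cryptate antibody and GTP Red reagent for 1 h at 25° C. 665/620 nm ratio versus control gave inhibition rates; IC50 by nonlinear fit.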
Background: TR-FRET usually uses a lanthanide donor and a delayed reading to cut background.

The test system of a further assay is phosphorylated ERK. The assay can be described thus: KRAS G12D-mediated phosphorylated ERK inhibition assay (AlphaLISA), A427. The conditions noted are these: Homo sapiens, A-427; A427 cells; class symbols; read-out: pERK (A427) IC50. Type of assay: cell-based. The procedure:
The relative amounts of phosphorylated ERK and total ERK in the samples were separately determined according to the test methods provided in the instructions of the AlphaLISA SureFire Ultra p-ERK 1/2 (Thr202/Tyr204) kit (PerkinElmer) and the AlphaLISA SureFire Ultra TotalERK 1/2 kit (PerkinElmer).
The experimental procedures for the assay of the phosphorylated ERK and total ERK were as follows: 10 μL of each sample was added to a 384-well plate (Greiner), and 5 μL of the prepared Acceptor Beads (PerkinElmer) mixed solution (containing 50× Acceptor Beads 615, Activation Buffer, and equal volumes of Reaction Buffer 1 and Reaction Buffer 2) was added to each well; and the plate was incubated at room temperature for 2 h. Then 5 μL of 1× Donor Beads (PerkinElmer) diluted with Dilution Buffer was added to each well, and the plate was incubated at room temperature overnight. After the incubation was completed, AlphaLISA signal values for the phosphorylated ERK and total ERK were separately measured on an EnVision microplate reader (PerkinElmer) in the AlphaScreen standard mode. The following formula was adopted: phosphorylated ERK correction value=phosphorylated ERK AlphaLISA signal value/total ERK AlphaLISA signal value. The relative ratio of the phosphorylated ERK for each sample was calculated. The percentage inhibition rates of the compounds on the phosphorylated ERK at each concentration were calculated by comparing the relative value of the phosphorylated ERK with that of the DMSO control well. Then non-linear curve fittings for logarithmic concentration-inhibition rate were performed by the GraphPad Prism 8 analysis software, and the IC50 values of the compounds on the inhibition of the phosphorylated ERK were obtained (Table 2).
On the technique in general: Bead proximity is the source of the signal in Alpha formats.

T1 sequence (P01116 1-188 isoform P01116-2 G12D): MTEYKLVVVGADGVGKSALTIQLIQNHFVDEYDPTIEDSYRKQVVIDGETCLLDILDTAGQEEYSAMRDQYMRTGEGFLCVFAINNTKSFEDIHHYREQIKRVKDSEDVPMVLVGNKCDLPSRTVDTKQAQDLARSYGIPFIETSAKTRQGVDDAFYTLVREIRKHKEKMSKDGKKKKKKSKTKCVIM

On to `CCc1c(F)ccc2cc(O)cc(-c3ncc4c(N5CC6CCC(C5)N6)nc(OCC5(CN6CCN(CC7CCC8(CC7)CCN(C(=O)c7ccc(Cl)c(N9CCC(=O)NC9=O)c7)CC8)CC6)CC5)nc4c3F)c12` [Example 30, 1-(5-(9-((4-((1-(((4-(3,8-diazabicyclo[3.2.1]octan-3-yl)-7-(8-ethyl-7-fluoro-3-hydroxynaphthalen-1-yl)-8-fluoropyrido[4,3-d]pyrimidin-2-yl)oxy)methyl)cyclopropyl)methyl)piperazin-1-yl)methyl)-3-azaspiro[5.5]undecane-3-carbonyl)-2-chlorophenyl)dihydropyrimidine-2,4(1H,3H)-dione], for which the IC50 was 50 to 100 nM in assay [1] and ≤ 50 nM in the assay with phosphorylated ERK.

With `CCc1cccc2cc(O)cc(-c3ncc4c(N5CC6CCC(C5)N6)nc(OCC5(CN6CCN(CCCC7CCN(C(=O)c8ccc(Cl)c(N9CCC(=O)NC9=O)c8)CC7)CC6)CC5)nc4c3F)c12` [Example 19, 1-(5-(4-(3-(4-((1-(((4-(3,8-diazabicyclo[3.2.1]octan-3-yl)-7-(8-ethyl-3-hydroxynaphthalen-1-yl)-8-fluoropyrido[4,3-d]pyrimidin-2-yl)oxy)methyl)cyclopropyl)methyl)piperazin-1-yl)propyl)piperidine-1-carbonyl)-2-chlorophenyl)dihydropyrimidine-2,4(1H,3H)-dione], the half-inhibitory concentration (IC50) (in assay [1]; with phosphorylated ERK) was ≤ 50 nM each time.

`C#Cc1c(F)ccc2cc(O)cc(-c3ncc4c(N5CC6CCC(C5)N6)nc(OCC5(CN6CCN(CC7CCC8(CC7)CCN(C(=O)c7ccc(Br)c(N9CCC(=O)NC9=O)c7)CC8)CC6)CC5)nc4c3F)c12` [Example 29, 1-(5-(9-((4-((1-(((4-(3,8-diazabicyclo[3.2.1]octan-3-yl)-7-(8-ethynyl-7-fluoro-3-hydroxynaphthalen-1-yl)-8-fluoropyrido[4,3-d]pyrimidin-2-yl)oxy)methyl)cyclopropyl)methyl)piperazin-1-yl)methyl)-3-azaspiro[5.5]undecane-3-carbonyl)-2-bromophenyl)dihydropyrimidine-2,4(1H,3H)-dione]: the concentration for half-maximal inhibition (IC50) (in assay [1]; in the assay on phosphorylated ERK) was ≤ 50 nM each time.

`C#Cc1c(F)ccc2cc(O)cc(-c3ncc4c(N5CC6CCC(C5)N6)nc(OCC56CC(CN7CCN(CC8CCC9(CC8)CCN(C(=O)c8ccc(Cl)c(N%10CCC(=O)NC%10=O)c8)CC9)CC7)(C5)C6)nc4c3F)c12` [Example 33, 1-(5-(9-((4-((3-(((4-(3,8-diazabicyclo[3.2.1]octan-3-yl)-7-(8-ethynyl-7-fluoro-3-hydroxynaphthalen-1-yl)-8-fluoropyrido[4,3-d]pyrimidin-2-yl)oxy)methyl)bicyclo[1.1.1]pentan-1-yl)methyl)piperazin-1-yl)methyl)-3-azaspiro[5.5]undecane-3-carbonyl)-2-chlorophenyl)dihydropyrimidine-2,4(1H,3H)-dione]: the IC50 was 100 to 500 nM in assay [1] and ≤ 50 nM with phosphorylated ERK.

Regarding `C#Cc1c(F)ccc2cc(O)cc(-c3ncc4c(N5CC6CCC(C5)N6)nc(OC[C@@H]5CCCN5CCC5CCC6(CC5)CCN(C(=O)c5ccc(Cl)c(N7CCC(=O)NC7=O)c5)CC6)nc4c3F)c12` [Example 32, 1-(5-(9-(2-((S)-2-(((4-(3,8-diazabicyclo[3.2.1]octan-3-yl)-7-(8-ethynyl-7-fluoro-3-hydroxynaphthalen-1-yl)-8-fluoropyrido[4,3-d]pyrimidin-2-yl)oxy)methyl)pyrrolidin-1-yl)ethyl)-3-azaspiro[5.5]undecane-3-carbonyl)-2-chlorophenyl)dihydropyrimidine-2,4(1H,3H)-dione], the IC50 is 500 to 1000 nM in assay [1] and 1000 to 10000 nM in the assay on phosphorylated ERK.

What is called IC50 is the concentration that inhibits the measured activity by half.
